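Results reflect a 48-hour exposure of cells in 96-well plates to compound at five concentrations. GI50 is the concentration that inhibits growth by half.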 Active and inactive are the calls of the source. Cut-off read from the data, not from the text of the source: active = GI50 up to about 1.1 µM and inactive = higher.
How the values were obtained:
Experiment in all cases: NCI anticancer screen, dose series, 48 h
KM12 = tested on: KM12
HCT-116 = tested on: HCT-116
COLO 205 = tested on: COLO 205
SF-268 = tested on: SF-268
TK-10 = tested on: TK-10
K562 = tested on: K562
OVCAR-4 = tested on: OVCAR-4
EKVX = tested on: EKVX
MDA-MB-231 = tested on: MDA-MB-231
T47D = tested on: T47D
MCF7 = tested on: MCF7
CCRF-CEM = tested on: CCRF-CEM
RXF 393 = tested on: RXF 393
SK-OV-3 = tested on: SK-OV-3
RPMI-8226 = tested on: RPMI-8226
NCI-H460 = tested on: NCI-H460
MDA-N = tested on: MDA-N
ACHN = tested on: ACHN
HT-29 = tested on: HT-29
A549 = tested on: A549
SF-295 = tested on: SF-295
HL-60 = tested on: HL-60
LOX IMVI = tested on: LOX IMVI
SNB-19 = tested on: SNB-19
A498 = tested on: A498
SN12C = tested on: SN12C
U-251 = tested on: U-251
IGROV-1 = tested on: IGROV-1
UO-31 = tested on: UO-31
HOP-62 = tested on: HOP-62
CAKI-1 = tested on: CAKI-1
DU-145 = tested on: DU-145
SK-MEL-28 = tested on: SK-MEL-28
SW-620 = tested on: SW-620
SNB-75 = tested on: SNB-75
OVCAR-8 = tested on: OVCAR-8
SR = tested on: SR
HOP-92 = tested on: HOP-92
NCI/ADR-RES = tested on: NCI/ADR-RES
MDA-MB-435 = tested on: MDA-MB-435
MOLT-4 = tested on: MOLT-4
Hs-578T = tested on: Hs-578T
M14 = tested on: M14
HCC 2998 = tested on: HCC 2998
HCT-15 = tested on: HCT-15
SK-MEL-5 = tested on: SK-MEL-5
BT-549 = tested on: BT-549
OVCAR-3 = tested on: OVCAR-3
NCI-H23 = tested on: NCI-H23
NCI-H522 = tested on: NCI-H522
OVCAR-5 = tested on: OVCAR-5
SF-539 = tested on: SF-539
PC-3 = tested on: PC-3
Malme-3M = tested on: Malme-3M
UACC-62 = tested on: UACC-62
786-0 = tested on: 786-0
UACC-257 = tested on: UACC-257
SK-MEL-2 = tested on: SK-MEL-2
NCI-H226 = tested on: NCI-H226

Q: What does the source list for `O=C(C=P(c1ccccc1)(c1ccccc1)c1ccccc1)c1cccc(-c2cccc([N+](=O)[O-])c2)c1`?
A: GI50 (KM12): 3.67 µM (inactive); GI50 (HCT-116): 3.55 µM (inactive); GI50 (COLO 205): 1.53 µM (inactive); GI50 (SF-268): 3.93 µM (inactive); GI50 (TK-10): 3.18 µM (inactive); GI50 (K562): 2.99 µM (inactive); GI50 (OVCAR-4): 2.45 µM (inactive); GI50 (EKVX): 4.3 µM (inactive); GI50 (MDA-MB-231): 2 µM (inactive); GI50 (T47D): 4.9 µM (inactive); GI50 (MCF7): 3.47 µM (inactive); GI50 (CCRF-CEM): 2.55 µM (inactive); GI50 (RXF 393): 5.66 µM (inactive); GI50 (SK-OV-3): 2.86 µM (inactive); GI50 (RPMI-8226): 1.98 µM (inactive); GI50 (NCI-H460): 2.88 µM (inactive); GI50 (MDA-N): 2.49 µM (inactive); GI50 (ACHN): 2.89 µM (inactive); GI50 (HT-29): 1.8 µM (inactive); GI50 (A549): 3.62 µM (inactive); GI50 (SF-295): 3.18 µM (inactive); GI50 (HL-60): 1.76 µM (inactive); GI50 (LOX IMVI): 2.56 µM (inactive); GI50 (SNB-19): 4.21 µM (inactive); GI50 (A498): 1.83 µM (inactive); GI50 (SN12C): 2.97 µM (inactive); GI50 (U-251): 3.89 µM (inactive); GI50 (IGROV-1): 2.94 µM (inactive); GI50 (UO-31): 3.11 µM (inactive); GI50 (HOP-62): 8.04 µM (inactive); GI50 (CAKI-1): 1.86 µM (inactive); GI50 (DU-145): 6.78 µM (inactive); GI50 (SK-MEL-28): 3.1 µM (inactive); GI50 (SW-620): 3.33 µM (inactive); GI50 (SNB-75): 1.51 µM (inactive); GI50 (OVCAR-8): 3.57 µM (inactive); GI50 (SR): 2.58 µM (inactive); GI50 (HOP-92): 1.32 µM (inactive); GI50 (NCI/ADR-RES): 3.42 µM (inactive); GI50 (MDA-MB-435): 2.68 µM (inactive); GI50 (MOLT-4): 1.68 µM (inactive); GI50 (Hs-578T): 3.44 µM (inactive); GI50 (M14): 3.13 µM (inactive); GI50 (HCC 2998): 3.27 µM (inactive); GI50 (HCT-15): 3.16 µM; GI50 (SK-MEL-5): 2.37 µM (inactive); GI50 (BT-549): 4.74 µM (inactive); GI50 (OVCAR-3): 3.03 µM (inactive); GI50 (NCI-H23): 3.44 µM (inactive); GI50 (NCI-H522): 1.86 µM (inactive); GI50 (OVCAR-5): 3.1 µM (inactive); GI50 (SF-539): 4.56 µM (inactive); GI50 (PC-3): 2.84 µM (inactive); GI50 (Malme-3M): 2.86 µM (inactive); GI50 (UACC-62): 1.72 µM (inactive); GI50 (786-0): 4.24 µM (inactive)

Q: Which results are given for `Cc1ccc(S(=O)(=O)N/N=C/C2(c3ccccc3)c3ccccc3-c3ccccc32)cc1`?
A: GI50 (KM12): 7.76 µM (inactive); GI50 (HCT-116): 7.08 µM (inactive); GI50 (COLO 205): 3.62 µM (inactive); GI50 (SF-268): 14 µM (inactive); GI50 (TK-10): 20.9 µM (inactive); GI50 (K562): 4.56 µM (inactive); GI50 (OVCAR-4): 10.3 µM (inactive); GI50 (EKVX): 8.95 µM (inactive); GI50 (MDA-MB-231): 6.64 µM (inactive); GI50 (T47D): 2.09 µM (inactive); GI50 (MCF7): 6.98 µM (inactive); GI50 (CCRF-CEM): 4.16 µM (inactive); GI50 (RXF 393): 13 µM (inactive); GI50 (SK-OV-3): 15.4 µM (inactive); GI50 (RPMI-8226): 7.45 µM (inactive); GI50 (NCI-H460): 5.06 µM (inactive); GI50 (MDA-N): 4.28 µM (inactive); GI50 (ACHN): 4.94 µM (inactive); GI50 (HT-29): 12.5 µM (inactive); GI50 (A549): 5.74 µM (inactive); GI50 (SF-295): 3.21 µM (inactive); GI50 (HL-60): > 100 µM (inactive); GI50 (LOX IMVI): 12.7 µM (inactive); GI50 (SNB-19): 18.7 µM (inactive); GI50 (A498): 18.6 µM (inactive); GI50 (SN12C): 11.7 µM (inactive); GI50 (U-251): 11.8 µM (inactive); GI50 (IGROV-1): 10.5 µM (inactive); GI50 (UO-31): 5.82 µM (inactive); GI50 (UACC-257): 15.6 µM (inactive); GI50 (HOP-62): 17.7 µM (inactive); GI50 (CAKI-1): 12.6 µM (inactive); GI50 (DU-145): 12.1 µM (inactive); GI50 (SK-MEL-28): 14.8 µM (inactive); GI50 (SW-620): 15 µM (inactive); GI50 (OVCAR-8): 8.97 µM (inactive); GI50 (SR): 7.45 µM (inactive); GI50 (SK-MEL-2): 12.2 µM (inactive); GI50 (HOP-92): 12.6 µM (inactive); GI50 (NCI/ADR-RES): 7.94 µM (inactive); GI50 (MDA-MB-435): 11 µM (inactive); GI50 (MOLT-4): 7.18 µM (inactive); GI50 (Hs-578T): 14.3 µM (inactive); GI50 (M14): 10.9 µM (inactive); GI50 (HCC 2998): 13.3 µM (inactive); GI50 (HCT-15): 9.27 µM; GI50 (SK-MEL-5): 11.6 µM (inactive); GI50 (BT-549): 14.2 µM (inactive); GI50 (OVCAR-3): 7.71 µM (inactive); GI50 (NCI-H23): 15.5 µM (inactive); GI50 (NCI-H522): 13 µM (inactive); GI50 (OVCAR-5): 12.4 µM (inactive); GI50 (NCI-H226): 14.7 µM (inactive); GI50 (SF-539): 15.8 µM (inactive); GI50 (PC-3): 3.38 µM (inactive); GI50 (Malme-3M): 5.42 µM (inactive); GI50 (UACC-62): 11.2 µM (inactive); GI50 (786-0): 12.1 µM (inactive)

Q: Which results are given for `CC(=O)NC1=C(Sc2ccc(Cl)cc2)C(=O)c2ccccc2C1=O`?
A: GI50 (KM12): 4.75 µM (inactive); GI50 (COLO 205): 2 µM (inactive); GI50 (SF-268): 2.53 µM (inactive); GI50 (TK-10): 4.42 µM (inactive); GI50 (K562): 2.56 µM (inactive); GI50 (OVCAR-4): 1.63 µM (inactive); GI50 (EKVX): 5.71 µM (inactive); GI50 (MDA-MB-231): 3.04 µM (inactive); GI50 (T47D): 2.06 µM (inactive); GI50 (MCF7): 2.08 µM (inactive); GI50 (CCRF-CEM): 1.06 µM (active); GI50 (RXF 393): 1.86 µM (inactive); GI50 (SK-OV-3): 15.7 µM (inactive); GI50 (RPMI-8226): 1.31 µM (inactive); GI50 (NCI-H460): 8.34 µM (inactive); GI50 (MDA-N): 1.76 µM (inactive); GI50 (ACHN): 1.8 µM (inactive); GI50 (HT-29): 12.2 µM (inactive); GI50 (A549): 11.5 µM (inactive); GI50 (SF-295): 8.81 µM (inactive); GI50 (HL-60): 0.285 µM (active); GI50 (LOX IMVI): 3.55 µM (inactive); GI50 (SNB-19): 13.2 µM (inactive); GI50 (A498): 3.5 µM (inactive); GI50 (SN12C): 4.67 µM (inactive); GI50 (U-251): 3.84 µM (inactive); GI50 (IGROV-1): 4.84 µM (inactive); GI50 (UO-31): 1.95 µM (inactive); GI50 (UACC-257): 5.33 µM (inactive); GI50 (CAKI-1): 3.7 µM (inactive); GI50 (DU-145): 14.6 µM (inactive); GI50 (SK-MEL-28): 2.7 µM (inactive); GI50 (SW-620): 1.95 µM (inactive); GI50 (OVCAR-8): 2.04 µM (inactive); GI50 (SR): 2.21 µM (inactive); GI50 (SK-MEL-2): 3.88 µM (inactive); GI50 (HOP-92): 1.82 µM (inactive); GI50 (NCI/ADR-RES): 2.37 µM (inactive); GI50 (MDA-MB-435): 2.08 µM (inactive); GI50 (MOLT-4): 0.374 µM (active); GI50 (Hs-578T): 10.4 µM (inactive); GI50 (HCC 2998): 14.7 µM (inactive); GI50 (HCT-15): 4.15 µM; GI50 (SK-MEL-5): 1.85 µM (inactive); GI50 (BT-549): 4.81 µM (inactive); GI50 (OVCAR-3): 2.05 µM (inactive); GI50 (NCI-H23): 5.28 µM (inactive); GI50 (NCI-H522): 0.272 µM (active); GI50 (OVCAR-5): 11.7 µM (inactive); GI50 (NCI-H226): 10.6 µM (inactive); GI50 (SF-539): 2.15 µM (inactive); GI50 (PC-3): 2.77 µM (inactive); GI50 (Malme-3M): 2.97 µM (inactive); GI50 (UACC-62): 2.61 µM (inactive); GI50 (786-0): 2.09 µM (inactive)

— ChEMBL document CHEMBL1201862, “PubChem BioAssay data set” (2004)
